Experimental data as given in paper PMC11912475 (Journal of Medicinal Chemistry, 2025).
Like-named read-outs stand apart in the source and are kept apart here.

Legend:
[1] = biological target: T1, Serotonin transporter SERT (Homo sapiens, UniProt P31645); test: Radioligand displacement binding assay, [3H]paroxetine, SERT
T1 construct: host or cells: HEK-293

[2] = biological target: T2, GluN1-GluN2B NMDAR subtype (Homo sapiens, UniProt Q05586+Q13224); test: FLIPR/Ca2+ assay, NMDAR GluN1-GluN2B subtype in CHO cells; assay type: cell-based
T2 construct: host or cells: NR1-2B-CHO cells, constitutive expression
Procedure: (§1) These compounds were assessed for their effects on specific heterodimeric NMDAR subtypes stably overexpressed in Chinese Hamster Ovary (CHO) cells. The subtypes tested included GluN1-GluN2A, GluN1-GluN2B, GluN1-GluN2C, and GluN1-GluN2D. CHO cells expressing each of the four NMDAR subtypes were incubated with 10 μM L-glutamate, a concentration known to elicit maximal Ca^2+ influx, serving as the stimulus. Intracellular Ca^2+ levels were subsequently measured to determine the extent of NMDAR activation.
(§2) Assay buffer composition was 145 mM NaCl, 5 mM KCl, 2 mM CaCl2, 1 g/Liter D-(+)-glucose, and 20 mM HEPES (pH 7.3 adjusted with NaOH). Cells were plated at a density of 15.000/well in 384 black/clear bottom plates. […] Cells were kept at 30 °C in 5% CO2 incubator for 24 h. Cells were preloaded for 1 h with 2 μM Fluo-4 Ca^2+-sensitive probe, simultaneously with 2.5 mM probenecid, an inhibitor of nonspecific anion transport, and 500 μM ketamine to avoid cytotoxicity. […] Intracellular Ca^2+ level was monitored by FLIPR (excitation wavelength at 470–495 nm, emission wavelength at 515–575 nm) for 10 s before and 5 min after the addition of test items. All test items, including L-glutamate and glycine, were added simultaneously. […] FLIPR data were normalized as 100%, in the presence of 10 μM L-glutamate and 10 μM glycine, while as 0%, in the presence of assay buffer. […] Then, data were normalized by Excel 2013 (Microsoft Office) software, using wells added with 10 μM L-glutamate plus 10 μM glycine (column 23) as high control, and wells added with assay buffer only (column 24) as low control. To assess plate quality, Z′ calculations were performed in Excel. Z′ was calculated according to following equation: Z′ = 1–3(σh + σl)/|μh – μL| where μ and σ are the means and the standard deviations of the means of high (h) and low (l) controls, respectively. Compound concentration–response curves were plotted by Prism 8 GraphPad software, in the different experimental conditions (see Supporting Information). Data were analyzed using least-squares regression fitting, to fit data to a standard four parameters logistic equation using GraphPad Prism10. This regression fitting allowed the calculation of pIC50 and the corresponding SEM.

[3] = biological target: T3, Norepinephrine transporter NET (Homo sapiens, UniProt P23975); test: Radioligand displacement binding assay, [125I]RTI-55, NET
T3 construct: host or cells: MDCK

Sigma σ1 = biological target: T4, Sigma σ1 (Homo sapiens, UniProt Q99720); test: Radioligand displacement binding assay, [3H]pentazocine, sigma σ1
T4 construct: Sigma σ1; Source: Human Jurkat cells; host or cells: Jurkat

Histamine H1 = biological target: T5, Histamine H1 (Homo sapiens, UniProt P35367); test: Radioligand displacement binding assay, [3H]pyrilamine, H1
T5 construct: host or cells: CHO-K1

Serotonin 5-HT2A = biological target: T6, Serotonin 5-HT2A (Homo sapiens, UniProt P28223); test: Radioligand displacement binding assay, [3H]ketanserin, 5-HT2A
T6 construct: host or cells: CHO-K1

[4] = system: Glutamate, NMDA, Phencyclidine binding site; test: Radioligand displacement binding assay, [3H]TCP, NMDA; design: species or system Wistar rat
Serotonin 5-HT7 = biological target: T7, Serotonin 5-HT7 (Homo sapiens, UniProt P34969); test: Radioligand displacement binding assay, [3H]LSD, 5-HT7
T7 construct: host or cells: CHO-K1

Muscarinic M5 = biological target: T8, Muscarinic M5 (Homo sapiens, UniProt P08912); test: Radioligand displacement binding assay, [3H]N-methylscopolamine, M5
T8 construct: host or cells: CHO-K1
T8 sequence (P08912 1-532): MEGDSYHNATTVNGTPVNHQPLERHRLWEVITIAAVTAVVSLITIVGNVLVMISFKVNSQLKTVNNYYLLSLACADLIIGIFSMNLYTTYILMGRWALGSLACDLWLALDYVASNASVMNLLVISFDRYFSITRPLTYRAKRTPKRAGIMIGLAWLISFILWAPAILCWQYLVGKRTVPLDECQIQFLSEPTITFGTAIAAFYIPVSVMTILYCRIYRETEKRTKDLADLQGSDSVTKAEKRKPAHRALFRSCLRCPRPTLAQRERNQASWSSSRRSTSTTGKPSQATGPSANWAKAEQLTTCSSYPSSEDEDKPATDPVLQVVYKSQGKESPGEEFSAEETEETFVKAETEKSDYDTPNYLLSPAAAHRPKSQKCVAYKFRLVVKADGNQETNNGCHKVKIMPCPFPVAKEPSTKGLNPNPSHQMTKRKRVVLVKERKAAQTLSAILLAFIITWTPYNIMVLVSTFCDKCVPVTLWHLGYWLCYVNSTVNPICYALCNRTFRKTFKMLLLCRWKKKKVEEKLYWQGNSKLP

[5] = biological target: GluN1-GluN2C NMDAR subtype (Homo sapiens, UniProt Q05586+Q14957); test: FLIPR/Ca2+ assay, NMDAR GluN1-GluN2C subtype in CHO cells; assay type: cell-based
Procedure: as §1, §2

[6] = biological target: GluN1-GluN2D NMDAR subtype (Homo sapiens, UniProt O15399+Q05586); test: FLIPR/Ca2+ assay, NMDAR GluN1-GluN2D subtype in CHO cells; assay type: cell-based
Procedure: as §1, §2

Serotonin 5-HT5A = biological target: T9, Serotonin 5-HT5A (Homo sapiens, UniProt P47898); test: Radioligand displacement binding assay, [3H]LSD, 5-HT5A
T9 construct: host or cells: CHO-K1

[7] = biological target: GluN1-GluN2A NMDAR subtype (Homo sapiens, UniProt Q05586+Q12879); test: FLIPR/Ca2+ assay, NMDAR GluN1-GluN2A subtype in CHO cells; assay type: cell-based
Procedure: as §1, §2

μ opioid receptor (MOP) = biological target: T10, μ opioid receptor (MOP) (Homo sapiens, UniProt P35372); test: biochemical; assay type: binding; conditions: read-out: % inhibition of binding, MOP
T10 construct: host or cells: CHO-K1

Serotonin 5-HT2C = biological target: T11, Serotonin 5-HT2C (Homo sapiens, UniProt P28335); test: Radioligand displacement binding assay, [3H]mesulergine, 5-HT2C
T11 construct: host or cells: CHO-K1
T11 sequence (P28335 33-458): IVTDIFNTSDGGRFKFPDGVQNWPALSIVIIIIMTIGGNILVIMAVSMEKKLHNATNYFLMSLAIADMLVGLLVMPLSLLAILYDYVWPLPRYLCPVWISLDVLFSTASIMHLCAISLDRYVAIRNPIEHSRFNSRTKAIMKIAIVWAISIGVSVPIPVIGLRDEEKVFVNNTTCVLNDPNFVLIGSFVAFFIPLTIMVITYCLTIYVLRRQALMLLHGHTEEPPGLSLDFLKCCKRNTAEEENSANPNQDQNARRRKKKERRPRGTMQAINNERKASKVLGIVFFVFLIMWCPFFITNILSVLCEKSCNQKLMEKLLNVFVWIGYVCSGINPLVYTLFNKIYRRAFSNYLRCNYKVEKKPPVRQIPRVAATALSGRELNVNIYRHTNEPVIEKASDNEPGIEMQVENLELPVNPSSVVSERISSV

Serotonin 5-HT1A = biological target: T12, Serotonin 5-HT1A (Homo sapiens, UniProt P08908); test: Radioligand displacement binding assay, [3H]8-OH-DPAT, 5-HT1A
T12 construct: host or cells: CHO-K1
T12 sequence (P08908 1-422): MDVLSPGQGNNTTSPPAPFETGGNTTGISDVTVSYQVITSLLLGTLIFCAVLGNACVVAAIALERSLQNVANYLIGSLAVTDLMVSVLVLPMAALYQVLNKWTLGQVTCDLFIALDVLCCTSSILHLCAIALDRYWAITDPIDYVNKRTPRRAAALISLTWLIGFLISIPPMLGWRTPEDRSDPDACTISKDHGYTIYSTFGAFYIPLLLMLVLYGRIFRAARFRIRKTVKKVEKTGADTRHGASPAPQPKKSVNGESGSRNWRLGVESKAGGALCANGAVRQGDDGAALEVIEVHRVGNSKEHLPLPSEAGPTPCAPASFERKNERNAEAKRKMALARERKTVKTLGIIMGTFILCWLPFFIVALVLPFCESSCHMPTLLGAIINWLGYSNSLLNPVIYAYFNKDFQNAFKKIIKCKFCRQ

[8] = CHO cells, 10 μM L-glutamate and 10 μM glycine, n.d. = 50% of inhibition could not be reached at the highest concentration used
[9] = CHO cells, 10 μM L-glutamate and 10 μM glycine, n.d. = 50% of inhibition could not be reached at the highest concentration used, read-out: pIC50 (mean ± SEM) GluN1-GluN2B (converted)
[10] = CHO cells, 10 μM L-glutamate and 10 μM glycine, n.d. = 50% of inhibition could not be reached at the highest concentration used, read-out: pIC50 (mean ± SEM) GluN1-GluN2C (converted)
[11] = CHO cells, 10 μM L-glutamate and 10 μM glycine, n.d. = 50% of inhibition could not be reached at the highest concentration used, read-out: pIC50 (mean ± SEM) GluN1-GluN2D (converted)
[12] = CHO cells, 10 μM L-glutamate and 10 μM glycine, n.d. = 50% of inhibition could not be reached at the highest concentration used, read-out: pIC50 (mean ± SEM) GluN1-GluN2A (converted)

Chain of GluN1-GluN2C NMDAR subtype (Q14957 20-1233, other chains not shown): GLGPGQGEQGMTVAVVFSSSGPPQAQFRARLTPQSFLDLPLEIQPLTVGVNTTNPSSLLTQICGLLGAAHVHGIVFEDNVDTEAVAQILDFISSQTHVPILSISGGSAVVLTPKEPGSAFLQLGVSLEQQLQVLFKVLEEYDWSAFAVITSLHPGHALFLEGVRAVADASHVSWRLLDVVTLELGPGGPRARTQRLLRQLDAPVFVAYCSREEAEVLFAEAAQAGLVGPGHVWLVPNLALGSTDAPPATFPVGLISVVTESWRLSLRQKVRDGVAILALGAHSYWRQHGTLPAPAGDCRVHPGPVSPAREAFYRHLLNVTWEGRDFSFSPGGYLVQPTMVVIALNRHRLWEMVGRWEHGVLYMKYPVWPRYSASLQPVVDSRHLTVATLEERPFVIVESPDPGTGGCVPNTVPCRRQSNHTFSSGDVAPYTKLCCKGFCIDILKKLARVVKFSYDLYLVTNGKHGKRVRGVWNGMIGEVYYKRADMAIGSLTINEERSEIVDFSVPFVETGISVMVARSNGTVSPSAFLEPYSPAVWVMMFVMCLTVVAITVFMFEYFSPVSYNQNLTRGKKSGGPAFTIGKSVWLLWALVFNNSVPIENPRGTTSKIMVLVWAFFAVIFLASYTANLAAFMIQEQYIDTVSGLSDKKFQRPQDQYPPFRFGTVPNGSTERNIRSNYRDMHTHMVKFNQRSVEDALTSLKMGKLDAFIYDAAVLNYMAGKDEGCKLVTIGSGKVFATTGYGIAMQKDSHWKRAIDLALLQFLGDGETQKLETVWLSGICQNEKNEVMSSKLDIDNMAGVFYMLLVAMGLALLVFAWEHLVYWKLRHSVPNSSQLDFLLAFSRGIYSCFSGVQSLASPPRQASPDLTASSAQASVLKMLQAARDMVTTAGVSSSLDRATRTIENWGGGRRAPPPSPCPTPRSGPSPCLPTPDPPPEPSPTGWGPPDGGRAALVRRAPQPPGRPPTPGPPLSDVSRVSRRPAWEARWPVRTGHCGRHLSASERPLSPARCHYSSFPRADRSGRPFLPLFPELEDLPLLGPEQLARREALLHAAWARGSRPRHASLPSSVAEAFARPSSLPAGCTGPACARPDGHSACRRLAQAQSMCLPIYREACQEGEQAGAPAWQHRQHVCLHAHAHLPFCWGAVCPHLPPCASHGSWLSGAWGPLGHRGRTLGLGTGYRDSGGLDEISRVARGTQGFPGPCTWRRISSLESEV
T2 sequence (Q13224 27-1484, other chains not shown): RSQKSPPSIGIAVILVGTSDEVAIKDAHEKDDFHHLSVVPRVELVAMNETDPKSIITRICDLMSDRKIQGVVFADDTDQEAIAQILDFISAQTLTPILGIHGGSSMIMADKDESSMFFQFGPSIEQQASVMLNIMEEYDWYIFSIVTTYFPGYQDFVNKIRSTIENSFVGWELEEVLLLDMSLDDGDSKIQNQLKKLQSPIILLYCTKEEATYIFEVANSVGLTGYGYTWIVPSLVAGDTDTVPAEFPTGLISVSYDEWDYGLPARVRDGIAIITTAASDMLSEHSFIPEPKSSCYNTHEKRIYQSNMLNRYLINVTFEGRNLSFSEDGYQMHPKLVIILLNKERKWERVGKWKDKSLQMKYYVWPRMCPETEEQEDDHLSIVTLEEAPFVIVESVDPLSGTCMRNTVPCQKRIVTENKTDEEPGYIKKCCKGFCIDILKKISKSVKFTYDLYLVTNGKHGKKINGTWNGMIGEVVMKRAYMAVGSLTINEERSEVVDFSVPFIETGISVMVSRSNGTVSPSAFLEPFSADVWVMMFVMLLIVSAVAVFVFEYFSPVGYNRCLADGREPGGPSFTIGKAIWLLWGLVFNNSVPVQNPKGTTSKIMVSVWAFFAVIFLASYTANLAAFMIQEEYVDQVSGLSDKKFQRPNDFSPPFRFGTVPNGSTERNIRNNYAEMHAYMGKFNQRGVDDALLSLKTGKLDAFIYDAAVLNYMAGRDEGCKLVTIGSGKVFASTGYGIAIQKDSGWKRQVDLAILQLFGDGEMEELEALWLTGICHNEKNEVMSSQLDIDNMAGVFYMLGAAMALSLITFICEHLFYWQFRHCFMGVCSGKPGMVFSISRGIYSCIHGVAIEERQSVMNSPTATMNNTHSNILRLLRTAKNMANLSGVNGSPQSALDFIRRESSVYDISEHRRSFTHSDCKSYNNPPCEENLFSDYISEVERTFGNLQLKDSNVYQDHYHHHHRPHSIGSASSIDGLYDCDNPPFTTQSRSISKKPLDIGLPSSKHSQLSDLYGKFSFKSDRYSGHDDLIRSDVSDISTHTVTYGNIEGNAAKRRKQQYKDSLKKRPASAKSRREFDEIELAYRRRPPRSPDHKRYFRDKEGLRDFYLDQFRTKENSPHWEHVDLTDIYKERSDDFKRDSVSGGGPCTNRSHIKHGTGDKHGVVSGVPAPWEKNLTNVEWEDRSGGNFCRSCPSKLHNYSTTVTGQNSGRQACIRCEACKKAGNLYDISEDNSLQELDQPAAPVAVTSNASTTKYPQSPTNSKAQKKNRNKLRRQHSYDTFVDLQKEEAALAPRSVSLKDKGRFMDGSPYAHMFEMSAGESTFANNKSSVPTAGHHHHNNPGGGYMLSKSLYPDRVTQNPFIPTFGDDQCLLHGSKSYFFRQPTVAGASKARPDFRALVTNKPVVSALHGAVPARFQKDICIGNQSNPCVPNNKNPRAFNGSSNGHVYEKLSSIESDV
Chain of GluN1-GluN2A NMDAR subtype (Q12879 23-1464, other chains not shown): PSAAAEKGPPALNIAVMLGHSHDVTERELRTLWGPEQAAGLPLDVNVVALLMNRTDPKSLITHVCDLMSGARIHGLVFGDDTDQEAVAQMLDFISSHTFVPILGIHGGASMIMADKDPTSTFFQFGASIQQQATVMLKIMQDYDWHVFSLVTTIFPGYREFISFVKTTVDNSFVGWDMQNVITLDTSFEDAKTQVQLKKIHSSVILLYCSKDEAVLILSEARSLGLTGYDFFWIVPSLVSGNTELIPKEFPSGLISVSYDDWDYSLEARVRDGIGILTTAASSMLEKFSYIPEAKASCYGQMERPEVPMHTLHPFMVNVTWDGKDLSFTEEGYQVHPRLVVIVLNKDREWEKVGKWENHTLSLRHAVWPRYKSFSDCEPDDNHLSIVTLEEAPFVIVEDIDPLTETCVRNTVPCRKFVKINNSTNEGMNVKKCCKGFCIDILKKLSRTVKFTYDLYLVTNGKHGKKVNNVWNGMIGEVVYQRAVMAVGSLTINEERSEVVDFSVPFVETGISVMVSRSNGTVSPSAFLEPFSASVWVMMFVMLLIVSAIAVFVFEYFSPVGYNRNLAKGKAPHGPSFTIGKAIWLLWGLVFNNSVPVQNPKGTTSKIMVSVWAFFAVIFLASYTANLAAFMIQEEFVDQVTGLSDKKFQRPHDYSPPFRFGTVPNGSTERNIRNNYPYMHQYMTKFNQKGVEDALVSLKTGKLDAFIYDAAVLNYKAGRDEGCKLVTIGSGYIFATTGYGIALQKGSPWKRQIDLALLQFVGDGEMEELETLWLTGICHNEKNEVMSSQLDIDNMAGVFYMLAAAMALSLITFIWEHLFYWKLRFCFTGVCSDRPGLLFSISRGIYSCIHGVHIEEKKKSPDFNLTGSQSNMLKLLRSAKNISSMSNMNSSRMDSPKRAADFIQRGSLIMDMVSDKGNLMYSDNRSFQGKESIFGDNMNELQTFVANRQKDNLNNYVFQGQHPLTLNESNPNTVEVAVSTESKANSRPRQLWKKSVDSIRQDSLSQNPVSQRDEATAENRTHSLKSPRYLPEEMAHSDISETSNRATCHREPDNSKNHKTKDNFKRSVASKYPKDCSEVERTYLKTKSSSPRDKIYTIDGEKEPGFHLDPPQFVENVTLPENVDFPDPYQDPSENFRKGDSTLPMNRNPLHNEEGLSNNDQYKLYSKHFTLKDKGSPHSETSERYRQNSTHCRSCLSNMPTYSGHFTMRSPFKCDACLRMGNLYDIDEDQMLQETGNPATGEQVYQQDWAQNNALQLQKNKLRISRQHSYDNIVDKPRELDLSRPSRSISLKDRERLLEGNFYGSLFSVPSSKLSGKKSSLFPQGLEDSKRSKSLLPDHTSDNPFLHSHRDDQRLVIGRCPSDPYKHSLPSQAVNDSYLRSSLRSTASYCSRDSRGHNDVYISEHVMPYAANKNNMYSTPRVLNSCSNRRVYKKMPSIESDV
T5 sequence (P35367 whole entry): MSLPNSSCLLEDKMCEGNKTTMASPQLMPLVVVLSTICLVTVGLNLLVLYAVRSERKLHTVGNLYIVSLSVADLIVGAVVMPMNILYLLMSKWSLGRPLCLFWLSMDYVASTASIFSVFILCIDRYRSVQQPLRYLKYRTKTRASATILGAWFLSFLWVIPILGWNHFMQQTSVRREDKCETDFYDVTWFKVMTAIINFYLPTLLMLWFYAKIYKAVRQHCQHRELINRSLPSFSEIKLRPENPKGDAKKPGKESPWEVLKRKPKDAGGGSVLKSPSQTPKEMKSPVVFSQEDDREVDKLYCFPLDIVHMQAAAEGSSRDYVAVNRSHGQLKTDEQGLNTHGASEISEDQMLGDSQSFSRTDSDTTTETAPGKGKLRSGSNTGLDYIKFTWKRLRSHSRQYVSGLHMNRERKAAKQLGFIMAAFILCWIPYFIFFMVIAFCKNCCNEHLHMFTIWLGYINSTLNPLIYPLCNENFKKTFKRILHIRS
T9 sequence (P47898 whole entry): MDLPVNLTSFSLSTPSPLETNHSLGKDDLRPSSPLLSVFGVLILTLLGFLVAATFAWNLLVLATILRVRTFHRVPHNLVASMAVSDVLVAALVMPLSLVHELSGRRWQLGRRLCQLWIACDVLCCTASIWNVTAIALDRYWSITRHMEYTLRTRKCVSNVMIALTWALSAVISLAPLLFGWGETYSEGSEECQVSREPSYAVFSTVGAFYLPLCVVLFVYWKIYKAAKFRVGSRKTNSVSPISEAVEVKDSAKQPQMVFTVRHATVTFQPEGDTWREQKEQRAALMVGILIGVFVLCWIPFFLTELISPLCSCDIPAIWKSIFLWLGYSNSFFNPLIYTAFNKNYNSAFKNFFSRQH

CC[C@@H](O)C(C[C@@H](C)N)(c1ccccc1)c1ccccc1 [(3R,6R)-DNML, (3R,6R)-6-amino-4,4-diphenylheptan-3-ol]
inhibition at 1 µM ([1]; 1 μM): -1%
inhibition at 10 µM ([1]; 10 μM): 20%
pIC50 (mean ± SEM) GluN1-GluN2B [2, 8]: 4.6 ± 0.054
inhibition at 1 µM ([3]; 1 μM): 4%
inhibition at 10 µM ([3]; 10 μM): 6%
inhibition at 0.3 µM (Sigma σ1; 0.3 μM): 14%
inhibition at 3 µM (Sigma σ1; 3 μM): 47%
inhibition at 10 µM (Histamine H1; 10 μM): 3%
inhibition at 30 µM (Histamine H1; 30 μM): 9%
inhibition at 0.3 µM (Serotonin 5-HT2A; 0.3 μM): 6%
inhibition at 3 µM (Serotonin 5-HT2A; 3 μM): 8%
% inhibition of binding, NMDA ([4]; 1 μM): 12%
% inhibition of binding, NMDA ([4]; 10 μM): 54%
inhibition at 1 µM (Serotonin 5-HT7; 1 μM): 12%
inhibition at 10 µM (Serotonin 5-HT7; 10 μM): 8%
inhibition at 1 µM (Muscarinic M5; 1 μM): -1%
inhibition at 10 µM (Muscarinic M5; 10 μM): 33%
pIC50 (mean ± SEM) GluN1-GluN2C [5, 8]: 4.7 ± 0.050
pIC50 (mean ± SEM) GluN1-GluN2D [6, 8]: 4.7 ± 0.058
inhibition at 1 µM (Serotonin 5-HT5A; 1 μM): 4%
inhibition at 10 µM (Serotonin 5-HT5A; 10 μM): -4%
pIC50 (mean ± SEM) GluN1-GluN2A [7, 8]: 4.8 ± 0.060
inhibition at 0.3 µM (μ opioid receptor (MOP); 0.3 μM): -7%
inhibition at 3 µM (μ opioid receptor (MOP); 3 μM): 9%
inhibition at 0.3 µM (Serotonin 5-HT2C; 0.3 μM): 7%
inhibition at 3 µM (Serotonin 5-HT2C; 3 μM): 16%
inhibition at 0.3 µM (Serotonin 5-HT1A; 0.3 μM): 0%
inhibition at 3 µM (Serotonin 5-HT1A; 3 μM): 4%

CC[C@@H](O)C(C[C@@H](C)N(C)C)(c1ccccc1)c1ccccc1 [(3R,6R)-ML, (3R,6R)-6-(dimethylamino)-4,4-diphenylheptan-3-ol]
pIC50 (mean ± SEM) GluN1-GluN2B [2, 8]: 4.0 ± 0.12
pIC50 (mean ± SEM) GluN1-GluN2C [5, 8]: 4.1 ± 0.062
pIC50 (mean ± SEM) GluN1-GluN2D [6, 8]: 4.3 ± 0.12
pIC50 (mean ± SEM) GluN1-GluN2A [7, 8]: 4.5 ± 0.085

CC[C@H](O)C(C[C@H](C)N(C)C)(c1ccccc1)c1ccccc1 [(3S,6S)-ML, (3S,6S)-6-(dimethylamino)-4,4-diphenylheptan-3-ol]
pIC50 (mean ± SEM) GluN1-GluN2B [2, 8]: 4.0 ± 0.077
pIC50 (mean ± SEM) GluN1-GluN2C [5, 8]: 4.1 ± 0.056
pIC50 (mean ± SEM) GluN1-GluN2D [6, 8]: 4.2 ± 0.16
pIC50 (mean ± SEM) GluN1-GluN2A [7, 8]: 4.1 ± 0.034

C[C@H]1CC(c2ccccc2)(c2ccccc2)C(=O)N1C [(S)-DDPO, 1,5-Dimethyl-3,3-diphenylpyrrolidin-2-one]
IC50 [2, 9]: > 100 µM
IC50 [5, 10]: > 100 µM
IC50 [6, 11]: > 100 µM
IC50 [7, 12]: > 100 µM

C[C@@H](CC(C(=O)O)(c1ccccc1)c1ccccc1)N(C)C [(S)-DDVA, 4-(Dimethylamino)-2,2-diphenylpentanoic acid]
IC50 [2, 9]: > 100 µM
IC50 [5, 10]: > 100 µM
IC50 [6, 11]: > 100 µM
IC50 [7, 12]: > 100 µM

CCC1=[N+](C)[C@@H](C)CC1(c1ccccc1)c1ccccc1 [(S)-EDDP, 2-Ethyl-1,5-dimethyl-3,3-diphenyl-3,4-dihydro-5H-pyrrolium chloride]
IC50 [2]: > 100 µM
IC50 [5]: > 100 µM
IC50 [6]: > 100 µM
IC50 [7]: > 100 µM

COc1ccc2c(c1)[C@]13CCCC[C@@H]1[C@H](C2)N(C)CC3 [dextromethorphan, reference compound]
pIC50 (mean ± SEM) GluN1-GluN2B [2, 8]: 4.8 ± 0.037
pIC50 (mean ± SEM) GluN1-GluN2C [5, 8]: 5.2 ± 0.057
pIC50 (mean ± SEM) GluN1-GluN2D [6, 8]: 4.6 ± 0.12
pIC50 (mean ± SEM) GluN1-GluN2A [7, 8]: 4.3 ± 0.029
